Values joined by “and” are separate entries in the source; they are usually repeats but may differ in a detail not shown here. Equal values may be shown once. Read-outs that look alike come from different tables or passages of the source.
Legend:
DR1-HA = DR1-HA (Homo sapiens, UniProt P01903+P01911, A100R/D57E/F55L/F60I/F76Y/I96L/L162R/M171V/P40L/Q125E/R42F/V115G/Y59C); test: activation of sodium aurothiomalate by hypochlorite, peptide release ELISA; assay type: binding; details: pH 7.4, final compound 10 μM, oxidant 0-10 μM, overnight 37° C.
Method: Activation of sodium aurothiomalate (sodium Au(I)-thiomalate, 8) by sodium hypochlorite (NaOCl). Sodium aurothiomalate (8; 300 μM) and a control, thiomalate (D,L-mercaptosuccinic acid, 9), were dissolved in PBS and incubated for 1 h at 20° C. with increasing concentrations of NaOCl. After 1 h, 5 μl of each reaction stock solution was added to DR1-HA-biotin (0.1 μM) in PBS (pH 7.4). The final concentration of compounds 8 and 9 was 10 μM. After incubation of the protein with added compound overnight at 37° C., the amount of biotinylated HA peptide that bound to DR1 was determined by chemiluminescent ELISA.
Activation of sodium aurothiomalate (Au(I)-thiomalate, 8) by sodium hypochlorite (NaOCl). The concentration of sodium hypochlorite (NaOCl) solution was determined prior to each use by measuring the absorbance at 292 nm (ε292=350 M^−1cm^−1). Sodium aurothiomalate (8), 300 μM, was incubated for one hour at 20° C. in the presence of increasing concentrations of NaOCl (0 μM, 100 μM, 125 μM, 150 μM, and 300 μM) in PBS (pH 7.4). As a control, thiomalate (D,L-mercaptosuccinic acid, 9), 300 μM, was also treated with the identical concentrations of NaOCl. After one hour, 5 μL of each reaction stock solution was added to 145 μL of DR1-HA-biotin complex in PBS (pH 7.4). The final protein concentration was 0.1 μM and the final concentration of compounds 8 and 9 was 10 μM. Final concentrations of oxidant were 0, 3.33, 4.17, 5 and 10 μM. Each concentration of oxidant was tested in quadruplicate. After incubating overnight at 37° C., the amount of biotinylated HA peptide that remained bound to DR1 was determined using the chemiluminescent ELISA described above.

[1] = biological target: DR1-CLIP (fluorescently labeled CLIP bound to HLA-DR1) (Homo sapiens, UniProt P01903+P01911, A100R/D57E/F55L/F60I/F76Y/I96L/L162R/M171V/P40L/Q125E/R42F/V115G/Y59C); test: fluorescence polarization screen of peptide release from DR1-CLIP (high-throughput and focused metal screen); assay type: binding; details: for ability to disrupt DR1-CLIP association, focused screen of metal complexes (FIG. 1a): 250 μM, ~20 h, 37° C., pH 5.0; for activity in high-throughput screen (peptide release by fluorescence polarization): 28,000 compounds screened, HLA-DM present, pH 5
Method: To find small-molecule modulators of class II MHC-peptide interactions, we used a high-throughput, fluorescence polarization assay to screen 28,000 compounds and natural extracts. Each well of a microplate contained a fluorescently labeled class II-associated invariant chain peptide (CLIP) bound to human leukocyte antigen (HLA)-DR1, a class II MHC protein. In addition, HLA-DM, a peptide exchange catalyst required in vivo for efficient loading, was present. The assay was performed at pH 5 to simulate endosomal pH (Morris P et al. (1994) Nature 368:551-4; Weber D A et al. (1996) Science 274:618-20). Compounds were added to the plates by pin transfer and monitored peptide release by fluorescence polarization. The screen uncovered only two active compounds, cisplatin (1) and carboplatin (2), both platinum(II) complexes.
Fluorescence polarization (FP) based binding assay used for small molecule screening. A FP assay was developed in order to screen small-molecule libraries for chemicals that could modulate peptide binding by class II MHC proteins. The fluorescent DR1-CLIP-AlexaFluor488 (0.1 μM) was used for all FP studies. The concentration of DM used in the screening assay, and when included as a control, was 0.1 μM. Experiments were carried out in a final volume of 40 μl in black, 384-well assay plates (non-binding surface, Costar). The plate was sealed with an aluminum foil seal (Costar), placed in a sealed humidified container, and incubated at 37° C. The FP values for each experimental well were determined using a plate reader (Analyst, LJL Biosystems). A total of 27,937 compounds from several commercial sources were screened using this assay. This assay format was also used to screen several metal complexes and chloride salts as wells as for kinetic studies.
Focused screen of metal complexes using the FP assay. Based on the results of the primary small molecule screen, a focused screen consisting of several metal complexes and chloride salts was performed using the fluorescence polarization assay. […]. These were tested in duplicate at a concentration of 250 μM. For the focused screen, DR1 (100 nM) bound to a Alexa-Fluor 488-labeled CLIP (af-CLIP) peptide was incubated with several metal complexes and salts (250 μM) for ˜20 h (37° C., pH 5.0), and then peptide release was measured by a fluorescence polarization assay. For comparison, the FP of labeled DR1-CLIP incubated with and without excess unlabeled HA peptide and the FP of af-CLIP peptide alone were also measured.

DR1-CLIP complex = DR1-CLIP complex (Homo sapiens, UniProt P01903+P01911, A100R/D57E/F55L/F60I/F76Y/I96L/L162R/M171V/P40L/Q125E/R42F/V115G/Y59C); test: chemiluminescent ELISA of metal-induced peptide release, DR1-CLIP; assay type: binding; details: for IC50: read-out: IC50 for CLIP release from DR1
[2] = system: HA peptide-loaded LG-2 cells presented to influenza-specific T cell hybridoma; test: T cell activation assay (IL-2 release); assay type: cell-based; details: 1-100 μM, APCs treated […], IL-2 ELISA (FIG. 4c)
DR1-HA(306-318) complex = DR1-HA(306-318) complex (Homo sapiens, UniProt P01903+P01911, A100R/D57E/F55L/F60I/F76Y/I96L/L162R/M171V/P40L/Q125E/R42F/V115G/Y59C); test: chemiluminescent ELISA of metal-induced peptide release, DR1-HA; assay type: binding; details: read-out: IC50 for HA peptide release from DR1
[3] = system: peptide-class II MHC complex; test: inhibition of peptide-class II MHC complex formation, cis versus trans; assay type: binding
[4] = pH 5, overnight 37° C., without DM

`O=C(O)CC(S)C(=O)O` (racemic) [thiomalate, D,L-mercaptosuccinic acid] was tested. Which “peptide release from DR1-HA after treatment of compound with hypochlorite” value (“peptide release from DR1-HA” below) (DR1-HA) did it give?
Its value is “does not have an effect”.

What about the “peptide release from DR1-HA” value (DR1-HA; listed as 9) of the same compound?
The value was “did not”.

How did the “ability to disrupt DR1-CLIP association, focused screen of metal complexes (FIG. 1a)” value (“ability to disrupt DR1-CLIP association” below) [1] turn out when `[Cl][Pd-2]([Cl])([Cl])[Cl].[K+].[K+]` [Compound K2PdCl4, K2PdCl4] was run?
Its value is “active”.

And the IC50 (DR1-CLIP complex; [4])?
Its IC50 is 3.48 ± 0.37 µM.

Which “ability to disrupt DR1-CLIP association” value [1] does the source give for `[Au+].[C-]#N.[C-]#N.[K+]` [K[Au^I(CN)2]] here?
The value was “did not release peptide from DR1”.

`[Cl][Ni][Cl]` [NiCl2] was tested. Which “ability to disrupt DR1-CLIP association” value [1] did it give?
The value was “inactive”.

And the “activity in titration of DR1-CLIP complex (FIG. 1b)” value (“activity in titration” for short) (DR1-CLIP complex; pH 5)?
Its value is “inactive”.

With `N.N.O=C([O-])C1(C(=O)[O-])CCC1.[Pt+2]` [carboplatin, diammine[1,1-cyclobutane-dicarboxylato(2-)-O,O′]—Pt^II] as the compound, how does the “activity in high-throughput screen (peptide release by fluorescence polarization)” value [1] read?
The value was “active”.

For `N.N.[Cl][Pt][Cl]` [cisplatin, cis-diamminedichloroplatinum (II)], which “inhibition of T-cell activation by metal-pretreated antigen-presenting cells” value [2] is on record?
Its value is “blocked”.

What about the “inhibition of T-cell activation by metal-pretreated antigen-presenting cells” value ([2]; listed as Cisplatin) of the same compound?
Its value is “more potent”.

What about the IC50 (DR1-HA(306-318) complex; pH 5) of the same compound?
The IC50 was ~4 µM and 5.49 µM.

What about the IC50 (DR1-HA(306-318) complex; pH 7.4) of the same compound?
The IC50 was ~1 µM and 1.06 µM.

And the “activity in high-throughput screen (peptide release by fluorescence polarization)” value [1]?
Its value is “active”.

What about the “activity as inhibitor of peptide-class II MHC complex formation” value [3] of the same compound?
Its value is “active”.

What about the IC50 (DR1-CLIP complex; [4]) of the same compound?
The IC50 was 2.66 ± 0.69 µM.

What about the IC50 (DR1-CLIP complex; pH 7.4) of the same compound?
Its IC50 is 0.77 ± 0.03 µM.

How did the “activity in titration” value (DR1-CLIP complex; pH 5) turn out when `O=C([O-])CC([S-])C(=O)[O-].[Au+].[Na+].[Na+]` (stereo not drawn) [sodium Au(I)-thiomalate, sodium aurothiomalate] was run?
The value was “did not release peptide from DR1”.

What about the “activity in titration” value (DR1-CLIP complex; pH 5, listed as sodium aurothiomalate) of the same compound?
The value was “inactive”.

And the “peptide release from DR1-HA” value (DR1-HA)?
The value was “causes peptide release from DR1”.

And the “peptide release from DR1-HA” value (DR1-HA; listed as 8)?
The value was “caused peptide release”.

With `N.N.[Cl][Pt+2][Cl]` [transplatin] as the compound, how does the “activity as inhibitor of peptide-class II MHC complex formation” value [3] read?
Its value is “is not”.

— patent US20080044405A1, “Noble metal complex-mediated immunosuppression” (President and Fellows of Harvard College, priority 2006, published 2008)
